Key:
[1] = molecular target: T1, specific receptor of progesterone (Oryctolagus cuniculus, UniProt P06186); assay: Hormonal receptor method: displacement of tritiated product R from rabbit uterus cytosol (relative binding affinity vs progesterone); conditions: for RBA 2 hours / RBA 24 hours: relative affinity, tritiated product R; for RBA 2 hours: progesterone = 100, incubation at 0° C. for 2 hours; for RBA 24 hours: progesterone = 100, incubation at 0° C. for 24 hours
T1 construct: the uteri were removed and homogenized; from tissue; host or cells: rabbit uterus, cytosol (105,000 g supernatant), estradiol-treated impuberal rabbits
T1 sequence (P06186 1-930): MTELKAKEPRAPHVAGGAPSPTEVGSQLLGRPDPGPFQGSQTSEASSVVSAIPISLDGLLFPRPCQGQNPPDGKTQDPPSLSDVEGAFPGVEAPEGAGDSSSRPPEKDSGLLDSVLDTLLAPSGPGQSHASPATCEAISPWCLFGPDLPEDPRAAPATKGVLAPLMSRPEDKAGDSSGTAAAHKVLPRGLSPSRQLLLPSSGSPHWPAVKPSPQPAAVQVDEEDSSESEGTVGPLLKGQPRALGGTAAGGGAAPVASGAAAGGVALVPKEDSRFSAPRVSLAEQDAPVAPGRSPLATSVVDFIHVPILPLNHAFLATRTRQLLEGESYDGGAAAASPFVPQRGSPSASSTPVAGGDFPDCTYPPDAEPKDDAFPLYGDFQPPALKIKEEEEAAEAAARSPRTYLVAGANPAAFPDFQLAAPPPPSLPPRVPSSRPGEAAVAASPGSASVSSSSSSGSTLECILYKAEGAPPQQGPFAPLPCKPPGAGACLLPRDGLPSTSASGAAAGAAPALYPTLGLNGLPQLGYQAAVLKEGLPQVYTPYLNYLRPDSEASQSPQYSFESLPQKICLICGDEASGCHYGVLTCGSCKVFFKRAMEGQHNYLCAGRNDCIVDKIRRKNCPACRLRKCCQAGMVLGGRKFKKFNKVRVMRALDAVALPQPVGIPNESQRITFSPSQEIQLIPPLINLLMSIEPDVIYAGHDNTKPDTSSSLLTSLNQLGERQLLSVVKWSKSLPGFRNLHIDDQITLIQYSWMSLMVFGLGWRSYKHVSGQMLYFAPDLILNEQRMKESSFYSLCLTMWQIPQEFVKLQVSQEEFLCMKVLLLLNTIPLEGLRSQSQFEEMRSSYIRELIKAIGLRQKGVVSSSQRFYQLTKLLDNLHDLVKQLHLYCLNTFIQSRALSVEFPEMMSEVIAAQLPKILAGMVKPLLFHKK
Experimental: a) The progestomimetic activity of the products of Examples 1 and 2 was studied by the method of hormonal receptors described by RAYNAUD et al in "J. Ster. BIOCHEM" 1975, Vol. 6, 615 to 622 and in "Physiology and Genetics of Reproduction", 1975 part A p. 143 to 160. The technique was as follows: […] of estradiol were administered to impuberal rabbits per-cutaneously. Five days after this treatment, the animals were killed, the uteri were removed and homogenized in a 10 mM tromethamine, 0.25 M saccharose, HCl pH 7.4 buffer. The homogenate was centrifuged at 105,000 g for one hour and the supernatant liquid or cytosol was adjusted to have a dilution of 1/50 (weight/volume). Tubes with the same volume of cytosol were incubated at 0° C. for two hours with a fixed concentration of tritiated 17,21-dimethyl-19-nor- Δ^4,9 -pregandiene-3,20-dione, called hereafter tritiated product R, in the presence or not of an increasing concentration of radio-inert 17,21-dimethyl-19-nor-Δ^4,9 -pregnadiene-3,20-dione called hereafter cold product R, of progesterone or of product under test. After two hours and after 24 hours, the radioactivity of bound tritiated product R was determined by the technique of absorption with cabon-dextran (1.25%-0.625%).
Then the following was traced: the straight line parallel to the axis of the abscesses, of the coordinate [formula]
Bo being the maximum quantity of bound tritiated product R, measured in the incubate containing only tritiated product R, Bmin being the minimum quantity of bound tritiated product R (non-specific), measured in the incubate containing tritiated product R plus a large excess of cold product R (2500 10^-9 M), the curves representing the percentages of bound tritiated product [formula] as a function of the logarithm of the concentrations of added cold product.
The intersections of the straight line I50 and the curves allowed the values CP and CX to be determined. CP: concentration of cold progesterone which inhibited by 50% the fixing of the tritiated product R. CX: concentration of the product under test which inhibited by 50% the fixing of the tritiated product R.
The relative affinity of the product under test or RBA is given by the formula

impuberal rabbits = assay: CLAUBERG test (lacy proliferation of the endometrium); assay type: in vivo, rabbit
Experimental: b) The progestomimetic activity of the product of Example 2 was determined by the CLAUBERG test. According to this test, groups of three impuberal rabbits were sensitized before-hand by the administration of estradiol sub-cutaneously for five days at a daily dose of 5 micrograms. Two days later, they were treated daily for five days with the medicament under study sub-cutaneously.
The product of Example 2 was used in solution in sesame oil containing 5% benzyl alcohol.

Row | Structure (SMILES) | affinity for the specific receptor of progesterone (conclusion in words) [1] | RBA 2 hours [1] | RBA 24 hours [1] | Mac Phail UNITS (impuberal rabbits; 0.3 μg/rabbit/day sub-cutaneously for five days, estradiol-sensitized impuberal rabbits, sesame oil with 5% benzyl alcohol) | Mac Phail UNITS (impuberal rabbits; 1 μg/rabbit/day sub-cutaneously for five days, estradiol-sensitized impuberal rabbits, sesame oil with 5% benzyl alcohol) | Mac Phail UNITS (impuberal rabbits; 3 μg/rabbit/day sub-cutaneously for five days, estradiol-sensitized impuberal rabbits, sesame oil with 5% benzyl alcohol) | progestomimetic activity (conclusion in words) (impuberal rabbits; CLAUBERG test, sub-cutaneous, impuberal rabbits) | Mac Phail UNITS (impuberal rabbits; daily dose of 10 micrograms, sub-cutaneously, impuberal rabbits)
1 | C[C@]12CC[C@H]3[C@@H](CCC4=CC(=O)CC[C@@H]43)[C@@H]1CC[C@@]21CCCC1=O [Example 1, Spiro (cyclopentane-1,17'β-Δ4'-estrene)-2,3'-dione] | very strong affinity | 312 | 1012 | – | – | – | – | –
2 | C[C@]12CCC3=C4CCC(=O)C=C4CC[C@H]3[C@@H]1CC[C@@]21CCCC1=O [Example 2, spiro (cyclopentane-1,17'β -Δ4,9-estradiene)-2,3'-dione] | very strong affinity | 344 | 912 | 0.5 Mac Phail units | 1.8 Mac Phail units | 2.8 Mac Phail units | very strong progestomimetic activity | 2.8 Mac Phail units

Reference: US5084450A, “Novel steroids” (Roussel Uclaf, priority 1990, dated 1992)
